The record followed here is US10758484B2, “CED of SN-38-loaded micelles against brain tumor” (Nippon Kayaku Co., Ltd., priority 2014, dated 2020).

Data set [1] in a line: Distribution in normal rat brain after CED, fluorescence microscopy. Particulars: for local brain tissue damage: free SN-38 infused by CED into normal rat brain. On the procedure: Serial coronal tissue sections (20 μm thickness) were prepared using Tissue-Tek Cryo3 (Sakura Finetek USA, Inc., Torrance, Calif.), and frozen sections were examined under a fluorescence microscope, BIOREVO BZ9000 (Keyence, Osaka, Japan), at an excitation wavelength of 377 nm and an emission wavelength 447 nm to evaluate the distribution of NK012 within the tissues. Image data were recorded using BZ-II Analyzer 1.10 software (Keyence).
Animals were euthanized immediately after infusion and serial sections were obtained using a cryostat (20 μm thickness; 1 mm interval).

Data set [2] concerns 9L orthotopic brain tumor model. Kind of data set: Survival study, 9L orthotopic brain tumor model. Type of data set: in vivo, rat. Particulars: rats with 9L tumor, 0.04 mg by single CED on day 5 after implantation. On the procedure: Fischer 344 rats were used for the 9L model, and F344/NJc1-rnu/rnu (nude) rats were used for the U87MG model. […] Briefly, 9L and U87MG cells were harvested using trypsin-EDTA following washing once with complete medium, and resuspended in cold phosphate-buffered saline (PBS) for implantation. A cell suspension containing 1×10^4 (9L) or 2×10^5 (U87MG) cells per 10 μl of PBS was used for implantation into the striatum region of rat brains. Under deep isoflurane anesthesia, rats were placed in a small animal stereotactic frame (David Kopf Instruments, Tujunga, Calif.). […] Five microliters of cell suspension were injected at a depth of 4.5 mm from the brain surface. After a wait of 2 minutes, another 5 μl were injected at a depth of 4 mm. After a final wait of 2 minutes, the needle was removed, and the wound was closed with sutures.
Fourteen rats with implanted U87MG tumor cells were randomly divided into two groups on day 5 after tumor cell implantation and treated as follows: (1) CED of PBS (n=7) as a control, and (2) CED of NK012 (n=7). […] All other rats were monitored daily for survival. Survival was compared between the treatment groups using a log-rank test. Estimated survival was expressed as a Kaplan-Meier curve.

On to “7-ethyl-10-hydroxy-camptothecine [SN-38]”, for which the “distribution after CED (description)” value in data set [1] (CED into normal rat striatum, fluorescence of SN-38) was “quite restricted”. The “local brain tissue damage” value in data set [1] is listed as “severe local tissue damage”. For the same substance, the “local brain tissue damage” value in data set [1] (listed as free SN-38) was “increased local brain damage”. In data set [2], the median survival came out at 28 days and the “survival range after tumor cell implantation” value was 24 to 30 days.
